Results: patent publication US20250161273A1, “PHARMACEUTICAL COMPOSITION COMPRISING DIPHENYLDIAZOLE DERIVATIVES AND METHODS OF USE” (MODAG GMBH, priority 2022, published 2025)
Read-outs that look alike come from different tables or passages of the source.

Key:
[1] = phase 1 first-in-human trial, multiple ascending dose (MAD) PK; type: in vivo; settings: for reduction of AUC compared to Day 1 / reduction of Cmax compared to Day 1: Day 7, fasted; for fold increase in AUC / fold increase in Cmax: MAD Day 1; for AUC: read-out: AUC(0-tau) (geometric mean); for Cmax: read-out: Cmax (geometric mean)
Experimental: (§1) Anle138b was studied in a single-centre, double-blind, randomised, placebo-controlled single ascending dose (SAD) and multiple ascending dose (MAD) study in healthy subjects. Eligible participants were randomly assigned (1:1 for sentinel subjects and 1:5 for main group) to placebo or anle138b (dose ranging from 50 mg to 300 mg per day), respectively. In addition, the effect of food on the pharmacokinetics (PK) of anle138b in healthy subjects was examined at doses of 150 mg per day (FES, food effect study). Participants were randomized to treatment sequence (fed→fasted) or (fasted→fed). Treatment for the SAD, MAD and FES arms of the study was administered orally in hard gelatin capsules containing either 10 mg or 30 mg of anle138b with excipient (i.e., lauroyl polyoxyl-32 glycerides) or excipient only. The primary endpoints were safety and tolerability, the secondary endpoint was pharmacokinetics. Data from all randomized individuals were evaluated. [Clinicaltrials.gov-identifier: NCT04208152. EudraCT-number: 2019-004218-33]
(§2) Study design: A single-centre, double-blind, randomised, placebo-controlled single ascending dose (SAD) and multiple ascending dose (MAD) study of anle138b in doses of up to 300 mg per day in healthy subjects. The effect of food (FES) on the PK of anle138b in healthy subjects was examined using doses of 150 mg. Participants were recruited from Quotient Sciences (the “CRO”, Nottingham, UK) volunteer database. Approvals from the ethical review board and from the Medicines and Healthcare products Regulatory Agency (UK) were obtained. This study was conducted in accordance with the protocol and with the following legislation: The updated version of the international Council for Harmonisation Good Clinical Practice (GCP) including the integrated Addendum E6, the Medicines for Human Use (Clinical Trials) Regulations including amendments No. 1928, 2984 and 941. In addition, the study was performed according to the ethical principles outlined in the World Medical Association Declaration of Helsinki and its amendments. The study data was monitored. An independent study monitor was appointed to verify that the study was conducted in accordance with current GCP, regulatory requirements, the protocol and that the data were authentic, accurate and complete.
(§3) In SAD, subjects received a single dose of anle138b or placebo after fasting from all food and drink (except water) for a minimum of 8 h prior to dosing. The dosing in the four SAD-cohorts were 50 mg, 100 mg, 200 mg and 300 mg of free anle138b equivalent, QD, cohorts A, B, C and D respectively. In the MAD part, participants received anle138b or placebo once daily (QD) for 7 days after fasting from all food and drink (except water) for a minimum of 8 h prior to dosing. The dosing in the three MAD-cohorts was 100 mg, 200 mg and 300 mg of free anle138b equivalent, cohorts AM, BM and CM, respectively. Post dosing mouth and hand checks were conducted to ensure the capsules were swallowed. In-study decisions were made by the safety advisory committee (SAC) comprising the principal investigator, the sponsor's medical monitor and a PK expert. For dose escalation to proceed, data needed to be available from a minimum of 6 subjects per cohort with completed per protocol safety and PK assessments up to 48 h after dosing to ensure at least 4 subjects had received active IMP. The decision to proceed to the next higher dose level was based on safety, tolerability and available PK data to 48 h post-administration. The following data were analyzed: Adverse events, vital signs, safety laboratory, ECG, physical examinations, plasma concentrations of anle138b with interim PK parameter estimations (Tmax, Cmax, AUC0-24, AUC0-tau, AUC0-last and T½, where applicable). Data were provided to the SAC in accordance with CRO standard operating procedure (SOP) on interim dose decision-making and dose escalation. […]

[2] = phase 1 first-in-human trial, single ascending dose (SAD) PK; type: in vivo; settings: for fold increase in AUC / fold increase in Cmax: SAD; for Tmax / AUC(0-t) / Cmax / half-life: human, plasma; for Cmax: read-out: Cmax (geometric mean); for half-life: read-out: T1/2 (geometric mean) (converted)
Experimental: as §1, §2, §3

[3] = 1.5-fold increase in dose from 200 mg to 300 mg
[4] = 2-fold increase in dose from 100 mg to 200 mg
[5] = human, plasma, oral, 100 mg, healthy volunteers, fasted, 100 mg QD, Day 1
[6] = human, plasma, oral, 100 mg, healthy volunteers, fasted, 100 mg QD, Day 7
[7] = human, plasma, oral, 200 mg, healthy volunteers, fasted, 200 mg QD, Day 1
[8] = human, plasma, oral, 200 mg, healthy volunteers, fasted, 200 mg QD, Day 7
[9] = human, plasma, oral, 300 mg, healthy volunteers, fasted, 300 mg QD, Day 1
[10] = human, plasma, oral, 300 mg, healthy volunteers, fasted, 300 mg QD, Day 7
[11] = 2-fold increase in dose from 50 mg to 100 mg
[12] = po, 50 mg, healthy volunteers, fasted, single oral 50 mg
[13] = po, 100 mg, healthy volunteers, fasted, single oral 100 mg
[14] = po, 200 mg, healthy volunteers, fasted, single oral 200 mg
[15] = po, 300 mg, healthy volunteers, fasted, single oral 300 mg

With Brc1cccc(-c2cc(-c3ccc4c(c3)OCO4)n[nH]2)c1 [anle138b, 3-(1,3-benzodioxol-5-yl)-5-(3-bromophenyl)-1H-pyrazole] the “reduction of AUC compared to Day 1” value ([1]; MAD 100 mg group) was “about 53%”, the “reduction of Cmax compared to Day 1” value ([1]; MAD 100 mg group) was “about 53%” and the “reduction of AUC compared to Day 1” value ([1]; MAD 200 mg group) was “about 70%”. For the same compound, the “reduction of Cmax compared to Day 1” value ([1]; MAD 200 mg group) was “about 70%”, the “reduction of AUC compared to Day 1” value ([1]; MAD 300 mg group) was 71% and the “reduction of Cmax compared to Day 1” value ([1]; MAD 300 mg group) was 66%. For the same compound, the “fold increase in AUC” value [1, 3] was 2.4 fold, the “fold increase in Cmax” value [1, 3] was 2.0 fold and the “fold increase in AUC” value [1, 4] was 3.5 fold. The “fold increase in Cmax” value [1, 4] was 3.3 fold, the “accumulation ratios per cohort” value ([1]; MAD, Day 7 vs Day 1) was “below 0.54” and the “day by which steady state exposure appeared to be reached” value ([1]; MAD, based on trough levels) was no more than 5 days. The Tmax ([1]; human, plasma, oral, 100 mg, healthy volunteers, fasted, 100 mg QD (Cohort AM), Day 1, read-out: Tmax (median)) was 1 h, the Tmax ([1]; human, plasma, oral, 100 mg, healthy volunteers, fasted, 100 mg QD (Cohort AM), Day 1, read-out: Tmax (range)) was 1 to 1.5 h and the Tmax ([1]; human, plasma, oral, 100 mg, healthy volunteers, fasted, 100 mg QD (Cohort AM), Day 7, read-out: Tmax (median)) was 1.25 h. The Tmax ([1]; human, plasma, oral, 100 mg, healthy volunteers, fasted, 100 mg QD (Cohort AM), Day 7, read-out: Tmax (range)) was 1 to 1.5 h, the AUC [1, 5] was roughly 261 ng·h/mL and the Cmax [1, 5] was roughly 135 ng/mL. It also gave an AUC [1, 6] of roughly 141 ng·h/mL, a Cmax [1, 6] of roughly 70.9 ng/mL and a half-life ([1]; human, plasma, oral, 100 mg, healthy volunteers, fasted, 100 mg QD, Day 7, read-out: T1/2 (geometric mean) (converted)) of roughly 4.23 h. For the same compound, the Tmax ([1]; human, plasma, oral, 200 mg, healthy volunteers, fasted, 200 mg QD (Cohort BM), Day 1, read-out: Tmax (median)) was 1.5 h, the Tmax ([1]; human, plasma, oral, 200 mg, healthy volunteers, fasted, 200 mg QD (Cohort BM), Day 1, read-out: Tmax (range)) was 1 to 2.02 h and the Tmax ([1]; human, plasma, oral, 200 mg, healthy volunteers, fasted, 200 mg QD (Cohort BM), Day 7, read-out: Tmax (median)) was 1 h. It also gave a Tmax ([1]; human, plasma, oral, 200 mg, healthy volunteers, fasted, 200 mg QD (Cohort BM), Day 7, read-out: Tmax (range)) of 1 to 1.5 h, an AUC [1, 7] of roughly 905 ng·h/mL and a Cmax [1, 7] of roughly 447 ng/mL. It also gave an AUC [1, 8] of roughly 308 ng·h/mL, a Cmax [1, 8] of roughly 128 ng/mL and a half-life at 7 days ([1]; human, plasma, oral, 200 mg, healthy volunteers, fasted, 200 mg QD, Day 7, read-out: T1/2 (geometric mean) (converted)) of roughly 10 h. It also gave a Tmax ([1]; human, plasma, oral, 300 mg, healthy volunteers, fasted, 300 mg QD (Cohort CM), Day 1, read-out: Tmax (median)) of 1.5 h, a Tmax ([1]; human, plasma, oral, 300 mg, healthy volunteers, fasted, 300 mg QD (Cohort CM), Day 1, read-out: Tmax (range)) of 1.5 to 2 h and a Tmax ([1]; human, plasma, oral, 300 mg, healthy volunteers, fasted, 300 mg QD (Cohort CM), Day 7, read-out: Tmax (median)) of 1.5 h. For the same compound, the Tmax ([1]; human, plasma, oral, 300 mg, healthy volunteers, fasted, 300 mg QD (Cohort CM), Day 7, read-out: Tmax (range)) was 1 to 1.5 h, the AUC [1, 9] was roughly 2210 ng·h/mL and the Cmax [1, 9] was roughly 910 ng/mL. For the same compound, the AUC [1, 10] was roughly 633 ng·h/mL, the Cmax [1, 10] was roughly 307 ng/mL and the half-life ([1]; human, plasma, oral, 300 mg, healthy volunteers, fasted, 300 mg QD, Day 7, read-out: T1/2 (geometric mean) (converted)) was roughly 6.07 h. The Tmax ([1]; human, plasma, oral, healthy volunteers, 100-300 mg QD, post-administration, read-out: median Tmax, all MAD cohorts) was 1 to 1.5 h, the “fold increase in AUC” value [2, 3] was roughly 1.5 fold and the “fold increase in Cmax” value [2, 3] was roughly 1.5 fold. The “fold increase in AUC” value [2, 11] was roughly 3.3 fold, the “fold increase in Cmax” value [2, 11] was roughly 2.9 fold and the “fold increase in AUC” value [2, 4] was roughly 3.0 fold. For the same compound, the “fold increase in Cmax” value [2, 4] was roughly 2.9 fold, the “practical terminal elimination half-time” value ([2]; healthy volunteers, overall) was roughly 12 h and the Tmax ([2]; oral, healthy volunteers, single dose 50-300 mg, post-administration, read-out: median Tmax, all SAD cohorts) was 1 to 1.5 h. For the same compound, the Tmax ([2]; po, 50 mg, healthy volunteers, fasted, single oral 50 mg (Cohort A), read-out: Tmax (median)) was 1 h, the Tmax ([2]; po, 50 mg, healthy volunteers, fasted, single oral 50 mg (Cohort A), read-out: Tmax (range)) was 0.5 to 2 h and the AUC(0-t) ([2]; po, 50 mg, healthy volunteers, fasted, single oral 50 mg, read-out: AUC(0-24) (geometric mean)) was roughly 113 ng·h/mL. For the same compound, the AUC(0-t) ([2]; po, 50 mg, healthy volunteers, fasted, single oral 50 mg, read-out: AUC(0-last) (geometric mean)) was 109 ng·h/mL, the Cmax [2, 12] was roughly 54.3 ng/mL and the half-life [2, 12] was 3.9 h. For the same compound, the Tmax ([2]; po, 100 mg, healthy volunteers, fasted, single oral 100 mg (Cohort B), read-out: Tmax (median)) was 1.5 h, the Tmax ([2]; po, 100 mg, healthy volunteers, fasted, single oral 100 mg (Cohort B), read-out: Tmax (range)) was 0.5 to 2 h and the AUC(0-t) ([2]; po, 100 mg, healthy volunteers, fasted, single oral 100 mg, read-out: AUC(0-24) (geometric mean)) was greater than 300 ng·h/mL. For the same compound, the AUC(0-t) ([2]; po, 100 mg, healthy volunteers, fasted, single oral 100 mg, read-out: AUC(0-last) (geometric mean)) was 372 ng·h/mL, the Cmax [2, 13] was roughly 156 ng/mL and the half-life [2, 13] was 10.8 h. It also gave a Tmax ([2]; po, 200 mg, healthy volunteers, fasted, single oral 200 mg (Cohort C), read-out: Tmax (median)) of 1.5 h, a Tmax ([2]; po, 200 mg, healthy volunteers, fasted, single oral 200 mg (Cohort C), read-out: Tmax (range)) of 1 to 2 h and an AUC(0-t) ([2]; po, 200 mg, healthy volunteers, fasted, single oral 200 mg, read-out: AUC(0-24) (geometric mean)) of roughly 1090 ng·h/mL. The AUC(0-t) ([2]; po, 200 mg, healthy volunteers, fasted, single oral 200 mg, read-out: AUC(0-last) (geometric mean)) was 1130 ng·h/mL, the Cmax [2, 14] was roughly 458 ng/mL and the half-life [2, 14] was 12.8 h. The Tmax ([2]; po, 300 mg, healthy volunteers, fasted, single oral 300 mg (Cohort D), read-out: Tmax (median)) was 1.5 h, the Tmax ([2]; po, 300 mg, healthy volunteers, fasted, single oral 300 mg (Cohort D), read-out: Tmax (range)) was 1.5 to 2 h and the AUC(0-t) ([2]; po, 300 mg, healthy volunteers, fasted, single oral 300 mg, read-out: AUC(0-24) (geometric mean)) was roughly 1650 ng·h/mL. For the same compound, the AUC(0-t) ([2]; po, 300 mg, healthy volunteers, fasted, single oral 300 mg, read-out: AUC(0-last) (geometric mean)) was 1720 ng·h/mL, the Cmax [2, 15] was roughly 704 ng/mL and the half-life [2, 15] was 16.2 h.
